The text below walks through data of patent publication US20250127709A1, “COSMETIC COMPOSITION CONTAINING IRIS GERMANICA ROOT-DERIVED EXOSOMES AS AN ACTIVE INGREDIENT” (PP PRODUITS PRESTIGES SA, priority 2021, published 2025).

Common to all, as to type: cell-based, human
The subject of one assay is MMP-1. The assay is described as follows: Wrinkle improvement efficacy: MMP-1 mRNA expression in UVB-irradiated HDFa. Conditions: UVB 20 mJ/cm^2, treated with 50 μM, positive control. As for the experimental part:
In order to confirm an anti-aging efficacy of the Iris germanica rhizome-derived exosomes, they were evaluated for their effect on MMP-1 expression by comparing them with the Iris germanica rhizome extracts for each solvent. After inoculating a human dermal fibroblast (HDFa), they were cultured in a culture medium of Fibroblast Basal Medium (Medium 106) containing 100 IU/mL of penicillin and 100 μg/mL of streptomycin under 5% CO2 at 37° C. for 24 hours. After the culture, the medium was discarded, and the Iris germanica rhizome-derived exosomes (stock concentration 9.90×10^9 particles/mL) and the Iris germanica rhizome extracts for each solvent (stock concentration 100 mg/mL) were treated at each concentration and cultured for 48 hours. In order to induce cell damage, the remaining cultured cell groups except for the non-UVB irradiation group were removed from the medium, and then the medium was irradiated with 20 mJ/cm^2 of UVB and replaced with a new medium, which was then cultured for 24 hours. After 24 hours, RNA was extracted from the cultured cells using a TransZol reagent, followed by performing RT-PCR (real-time genetic polymerase chain reaction) to measure an amount of mRNA change in MMP-1, which is related to skin aging and wrinkle formation. A product generated by the PCR was identified with a Gel Documentation system by performing electrophoresis on a 1% agarose gel. […]

In another assay the test system is COL1A1. The assay is described as follows: Wrinkle improvement efficacy: COL1A1 mRNA expression in HDFa. Conditions: treated with 50 μM, positive control. The procedure: In order to confirm an anti-aging efficacy of the Iris germanica rhizome-derived exosomes, they were evaluated for their effect on COL1A1 expression by comparing them with the Iris germanica rhizome extracts for each solvent. After inoculating a human dermal fibroblast (HDFa), they were cultured in a culture medium of Fibroblast Basal Medium (Medium 106) containing 100 IU/mL of penicillin and 100 μg/mL of streptomycin under 5% CO2 at 37° C. for 24 hours. After culturing, the medium was discarded, and the Iris germanica rhizome-derived exosomes (stock concentration 9.90×10^9 particles/mL) and the Iris germanica rhizome extracts for each solvent (stock concentration 100 mg/mL) were treated at each concentration and cultured for 48 hours. After culturing, RNA was extracted from the cultured cells using a TransZol reagent, followed by performing RT-PCR (real-time genetic polymerase chain reaction) to measure an amount of mRNA change in collagen, which maintains a skin connective tissue. A product generated by the PCR was identified with a Gel Documentation system by performing electrophoresis on a 1% agarose gel. In this case, a negative control group was treated with PBS, and a positive control group was treated with 50 μM of retinyl palmitate. […]

Another assay concerns AQP3 (Aquaporin 3). The assay is described as follows: Moisturizing efficacy: AQP3 mRNA expression by RT-PCR in HEKa. The conditions noted are these: treated with 0.01%, positive control. The procedure: In order to confirm a moisturizing efficacy of the Iris germanica rhizome-derived exosomes, they were evaluated for their effect on AQP3 expression by comparing them with the Iris germanica rhizome extracts for each solvent. After inoculating a human epidermal keratinocyte (HEKa), they were cultured in a culture medium of Dulbecco Modified Eagle Medium (DMEM) supplemented with 100 IU/mL of penicillin and 100 μg/mL of streptomycin under 5% CO2 at 37° C. for 24 hours. After the culture, the medium was discarded, and the iris germanica rhizome-derived exosomes (stock concentration 9.90×10^9 particles/mL) and the iris germanica rhizome extracts for each solvent (stock concentration 100 mg/mL) were treated at each concentration and cultured for 48 hours. Thereafter, RNA was extracted from the cultured cells using a TransZol reagent, followed by performing RT-PCR (real-time genetic polymerase chain reaction) to measure an amount of mRNA change in AQP3 (Aquaporin 3), which is a moisturizing factor involved in moisture movement in the cells and is a protein that plays an important role in skin moisturization. A product generated by the PCR was identified with a Gel Documentation system by performing electrophoresis on a 1% agarose gel. In this case, a negative control group was treated with PBS, and a positive control group was treated with 0.01% of a hyaluronic acid. […]

For the compound `CCCCCCCCCCCCCCCC(=O)OC/C=C(C)/C=C/C=C(C)/C=C/C1=C(C)CCCC1(C)C` [retinyl palmitate], the MMP-1 expression rate in the assay on MMP-1 is 72.81%. The same compound returned a COL1A1 expression rate in the assay on COL1A1 of 173.93%.

As for hyaluronic acid, in the assay on AQP3 (Aquaporin 3), the AQP3 expression rate was 155.69%.
